Experiment [1] concerns Staphylococcus aureus ATCC 700699 (MRSA). As to the kind of experiment: minimum inhibitory concentration; extreme values may be limits of the assay. The essentials: (§1)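 The minimum inhibitory concentration was defined as the lowest concentration whose well remained blue rather than becoming pink. It was measured against methicillin-susceptible and methicillin-resistant Staphylococcus aureus by broth microdilution in 96-well plates according to CLSI guidance, with compounds at 0 to 100 µM incubated for 24 h at 37°C before 30 µl of 0.015% resazurin was added for 2–4 h. Each plate included positive controls.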

The subject of experiment [2] is Staphylococcus aureus ATCC 29213 (MSSA). The description is as above. The essentials: as §1

Values after ≈ are worked out from the molar mass of the structure shown.

In the case of `CCN(CC)CCCCCCNc1cc(OC)cc2c(C)ccnc12`, the minimum inhibitory concentration in experiment [1] and in experiment [2] was greater than 50 µM throughout.
In the case of `CCN(CC)S(=O)(=O)c1ccc(C(=O)Nc2cc(C)nn2-c2nc(C)c(C)c(=O)[nH]2)cc1`, the minimum inhibitory concentration in experiment [1] and in experiment [2] was 50 µM (≈ 22.9 µg/mL) each time.
For the compound `CCc1ccc([C@@H]2C[C@H](C(F)(F)F)n3ncc(C(=O)NCc4ccc(OC)cc4)c3N2)cc1`, the minimum inhibitory concentration in experiment [1] and in experiment [2] was greater than 50 µM throughout.
Take `CC(C)(C)C(=O)N(CCCCCCN1C[C@H](O)[C@@H](O)[C@H](O)[C@H]1CO)C1CCCCCC1`: the minimum inhibitory concentration in experiment [1] and in experiment [2] was greater than 50 µM each time.
Consider `N=C(N)c1ccc(-c2cc(-c3ccccc3)on2)cc1`, for which the minimum inhibitory concentration in experiment [1] and in experiment [2] was greater than 50 µM in each case.
On to `COc1ccc(-c2cnc3ccc(N4CCCC4)nn23)cc1OC`, for which the minimum inhibitory concentration in experiment [1] and in experiment [2] was greater than 50 µM each time.
Consider `O=[N+]([O-])c1cn2c(n1)OC[C@@H](OCc1ccc(OC(F)(F)F)cc1)C2`, for which the minimum inhibitory concentration in experiment [1] and in experiment [2] was greater than 50 µM in each case.
As for `O=C(NCCc1c[nH]c2ccccc12)c1cc2ccccc2oc1=O`, the minimum inhibitory concentration in experiment [1] and in experiment [2] was greater than 50 µM each time.
Consider `COc1ccccc1C(C)NCC(=O)Nc1cc(C(F)(F)F)ccc1Cl` (centres undefined), for which the minimum inhibitory concentration in experiment [1] and in experiment [2] was greater than 50 µM throughout.
Regarding `Cc1cnc(N2CCN[C@@H](Cc3ccccc3)C2)nc1Oc1ccc(-n2ccnc2)cc1`, the minimum inhibitory concentration in experiment [1] and in experiment [2] was greater than 50 µM throughout.
For `CN1CCN(c2nccc3[nH]c(-c4cccc(F)c4)cc23)CC1`, the minimum inhibitory concentration in experiment [1] and in experiment [2] was greater than 50 µM throughout.
Turning to `O=C(c1ccc(NCCO)cc1)C1C[C@H]1c1ccc(Cl)cc1` (some centres undefined), the minimum inhibitory concentration in experiment [1] and in experiment [2] was greater than 50 µM throughout.
In the case of `COC(=O)c1c(NC(=O)c2c(F)c(F)c(F)c(F)c2F)sc2c1CCCCC2`, the minimum inhibitory concentration in experiment [1] and in experiment [2] was greater than 50 µM in each case.
Turning to `O=C(Nc1cccc(Cl)c1)c1cnc(N2CCN(c3ccncc3)CC2)c(Cl)c1`, the minimum inhibitory concentration in experiment [1] and in experiment [2] was greater than 50 µM each time.
In the case of `Nc1ncc(-c2ccc(C(F)(F)F)nc2)cc1-c1ccc(C(F)(F)F)nc1`, the minimum inhibitory concentration in experiment [1] and in experiment [2] was greater than 50 µM throughout.
For the compound `Cc1cccc(NC(=O)c2cc(S(=O)(=O)N(C)c3ccc(F)cc3)ccc2Cl)n1`, the minimum inhibitory concentration in experiment [1] and in experiment [2] was greater than 50 µM each time.
For `O=C(c1ccc(F)cc1)N(CCNc1ccccc1)c1ccccc1`, the minimum inhibitory concentration in experiment [1] and in experiment [2] was greater than 50 µM throughout.
As to `C[C@H](C(N)=O)N1CCCC[C@@H]1c1ccc(OCc2cccc(F)c2)cc1`, the minimum inhibitory concentration in experiment [1] and in experiment [2] was greater than 50 µM each time.
On to `CCOc1ccc(-c2nc(CNCCc3ccc(F)cc3)cs2)cc1`, for which the minimum inhibitory concentration in experiment [1] and in experiment [2] was greater than 50 µM in each case.
Take `O=C(NCCc1ccn(-c2ccccc2)n1)C1CCCCC1`: the minimum inhibitory concentration in experiment [1] and in experiment [2] was greater than 50 µM each time.
As to `Cc1cc(NC(=O)c2ccc(S(=O)(=O)N(Cc3ccccc3)C(C)C)cc2)no1`, the minimum inhibitory concentration in experiment [1] and in experiment [2] was greater than 50 µM in each case.
For `O=C(NCCN1CCCC1)c1cc(NCCN2CCOCC2)nc2ccc(Cl)cc12`, the minimum inhibitory concentration in experiment [1] and in experiment [2] was 50 µM (≈ 21.6 µg/mL) each time.
As for `Cc1cc(Nc2ccc(C(F)(F)F)cc2)n2ccnc2n1`, the minimum inhibitory concentration in experiment [1] and in experiment [2] was greater than 50 µM in each case.
On to `Cn1ncc2c(N3CCOCC3)nc(NCCc3c[nH]c4ccccc34)nc21`, for which the minimum inhibitory concentration in experiment [1] and in experiment [2] was greater than 50 µM throughout.
For `COC(=O)C1=C(C)NC(C)=C(C(=O)OC(C)C)C1c1cccc2nonc12` (centres undefined), the minimum inhibitory concentration in experiment [1] and in experiment [2] was greater than 50 µM throughout.
`Cc1ccc(S(=O)(=O)Nc2ccc(CN3CCN(C(=O)c4cccc(C#N)c4)CC3)cc2)cc1`: the minimum inhibitory concentration in experiment [1] and in experiment [2] was greater than 50 µM in each case.
Take `Cc1cc(C)nc(-n2nc(C)cc2Nc2ccccc2)n1`: the minimum inhibitory concentration in experiment [1] and in experiment [2] was greater than 50 µM throughout.
Regarding `Cc1ccc2cc(C3NC(=O)c4ccccc4N3)c(Cl)nc2c1` (centres undefined), the minimum inhibitory concentration in experiment [1] and in experiment [2] was greater than 50 µM throughout.
In the case of `Cc1nn(C)cc1C(C)Nc1nncc(-c2ccc(C(F)(F)F)cc2)n1` (centres undefined), the minimum inhibitory concentration in experiment [1] and in experiment [2] was greater than 50 µM throughout.
As to `O=C(Nc1ccccc1)c1ccc(-c2cc3ccncc3cc2OC2CCNCC2)s1`, the minimum inhibitory concentration in experiment [1] and in experiment [2] was 50 µM (≈ 21.5 µg/mL) throughout.
Turning to `CCc1nc2ccc(Cl)cn2c1C(=O)NCc1ccc(N2CCC(c3ccc(OC(F)(F)F)cc3)CC2)cc1`, the minimum inhibitory concentration in experiment [1] and in experiment [2] was greater than 50 µM each time.
With `O=C(Nc1cccc(-c2ccc(NCCCN3CCCC3)nc2)c1)c1ccccc1`, the minimum inhibitory concentration in experiment [1] and in experiment [2] was greater than 50 µM throughout.
In the case of `Nc1ncnc2[nH]nc(Cc3cccc4ccccc34)c12`, the minimum inhibitory concentration in experiment [1] and in experiment [2] was greater than 50 µM in each case.
For the compound `COc1cc(C(F)(F)F)nc2ccc(C)c(N)c12`, the minimum inhibitory concentration in experiment [1] and in experiment [2] was greater than 50 µM each time.
For `C[C@H](c1ccc2c(c1)CCCC2)N(C)c1ncc2c(N)nc(N)nc2n1`, the minimum inhibitory concentration in experiment [1] and in experiment [2] was 50 µM (≈ 17.5 µg/mL) in each case.
For `Cc1ccc(Oc2ccc(NC(=O)CNc3ccccc3N3CCCC3=O)cc2)cc1`, the minimum inhibitory concentration in experiment [1] and in experiment [2] was greater than 50 µM in each case.
As for `CNc1cc(C)nc(C2CN(C(=O)c3n[nH]c4ccccc34)CCO2)c1` (centres undefined), the minimum inhibitory concentration in experiment [1] and in experiment [2] was greater than 50 µM each time.
`Cc1cc(Cl)c(S(=O)(=O)N2CCCC2)cc1OCC(=O)NC1CCCCC1`: the minimum inhibitory concentration in experiment [1] and in experiment [2] was greater than 50 µM in each case.
For the compound `COC(=O)c1cccc2oc(-c3cccc(OC)c3NC(=O)c3cc(-c4ccccc4)on3)nc12`, the minimum inhibitory concentration in experiment [1] and in experiment [2] was greater than 50 µM each time.
As to `CNC(=O)C1Cc2c([nH]c3cc(Cl)ccc23)C2(CCN(CCc3ccccc3)CC2)N1` (centres undefined), the minimum inhibitory concentration in experiment [1] and in experiment [2] was greater than 50 µM each time.
With `c1ccc(Oc2ccc(-c3cncc(-c4ccc5[nH]ccc5c4)n3)cc2)cc1`, the minimum inhibitory concentration in experiment [1] and in experiment [2] was greater than 50 µM each time.
`CCc1nc2ccc(C(=O)NCc3ccc4c(c3)OCO4)cn2c1N(C)Cc1cccs1`: the minimum inhibitory concentration in experiment [1] and in experiment [2] was greater than 50 µM each time.
As for `CCCCc1ccc(NC(=O)Nc2ccc(O[C@H]3CCCC[C@@H]3N(C)c3ccccc3)c(F)c2)cc1`, the minimum inhibitory concentration in experiment [1] and in experiment [2] was greater than 50 µM throughout.
Turning to `Cc1ccc(C(=O)Nc2ccc(S(=O)(=O)O)c3cc(S(=O)(=O)O)cc(S(=O)(=O)O)c23)cc1NC(=O)c1cccc(NC(=O)Nc2cccc(C(=O)Nc3cc(C(=O)Nc4ccc(S(=O)(=O)O)c5cc(S(=O)(=O)O)cc(S(=O)(=O)O)c45)ccc3C)c2)c1`, the minimum inhibitory concentration in experiment [1] and in experiment [2] was greater than 50 µM throughout.
`COc1ccc2nc(C)cc(OCC(=O)NCc3ccccc3)c2c1`: the minimum inhibitory concentration in experiment [1] and in experiment [2] was greater than 50 µM throughout.
Take `COc1cccc(-n2nnnc2S(=O)(=O)Cc2ccccc2)c1`: the minimum inhibitory concentration in experiment [1] and in experiment [2] was 50 µM (≈ 16.5 µg/mL) each time.
Turning to `Clc1cccc(C(c2ccc(CN3CCNCC3)cc2)n2ccnc2)c1` (centres undefined), the minimum inhibitory concentration in experiment [1] and in experiment [2] was greater than 50 µM each time.
For `CC(C)NCC(=O)Nc1cccc(C(=O)Nc2cccc(C(F)(F)F)c2)c1`, the minimum inhibitory concentration in experiment [1] and in experiment [2] was greater than 50 µM each time.
Turning to `Cc1ncc(-c2ccnc(Nc3ccc(S(C)(=O)=O)cc3)n2)n1C(C)C`, the minimum inhibitory concentration in experiment [1] and in experiment [2] was greater than 50 µM each time.
Consider `CS(=O)(=O)c1cccc(-c2cnc3[nH]cc(-c4ccc(CCC(=O)O)cc4)c3c2)c1`, for which the minimum inhibitory concentration in experiment [1] and in experiment [2] was greater than 50 µM in each case.
As for `COc1ccc(N(CCc2cccc(C)n2)C(C)=O)cc1`, the minimum inhibitory concentration in experiment [1] and in experiment [2] was greater than 50 µM each time.
`c1ccc(-c2cc(N3CCCCC3)c3ccccc3n2)nc1`: the minimum inhibitory concentration in experiment [1] and in experiment [2] was greater than 50 µM in each case.
In the case of `CCOc1ccc2cc(-c3nn(CC4CCN(C)CC4)c4ncnc(N)c34)ccc2c1`, the minimum inhibitory concentration in experiment [1] and in experiment [2] was greater than 50 µM in each case.
For the compound `CC(C)(C(=O)Nc1ccc(F)cc1)n1cc(-c2ccccc2F)cn1`, the minimum inhibitory concentration in experiment [1] and in experiment [2] was greater than 50 µM in each case.
On to `CC(=O)NCC1CN(c2ccc(-c3ccc(CNCc4cn[nH]n4)cc3)c(F)c2)C(=O)O1` (centres undefined), for which the minimum inhibitory concentration in experiment [1] and in experiment [2] was 6.25 µM (≈ 2.74 µg/mL) throughout.
Turning to `CC(=O)Nc1ccc(NC(=O)c2cc(-c3cc(Cl)ccc3O)n[nH]2)cc1`, the minimum inhibitory concentration in experiment [1] and in experiment [2] was greater than 50 µM in each case.
For `COc1cccc(OC)c1C(=O)Nc1ccc(Cl)c(-c2nc3ccccc3s2)c1`, the minimum inhibitory concentration in experiment [1] and in experiment [2] was greater than 50 µM throughout.

The values above are taken from the supplement of paper PMC6206229.
